Measured values reported in patent US8361970B2, “Growth factor binding molecules” (University of South Florida, priority 2000, dated 2013).
“And” between values parts separate entries of the source, which are not always exact repeats. Equal entries are not always repeated.

Assays:
rat glioma C6 = experiment: Antitumor efficacy, C6 tumor in nude mice; assay type: in vivo
[1] = system: Erk1/Erk2 activation in U87MG tumors; experiment: Phosphorylated/activated Erk1/Erk2 in U87MG tumors in vivo; set-up: species or system nude mice; conditions: day 32, 100 and 200 mg per kg
Method: U87MG cells (human glioblastoma) are harvested, resuspended in PBS and injected s.c. into the right and left flank (10×10^6 cells per flank) of 8 week old female nude mice (Charles River, Wilmington, Mass.). When tumors reached about 100 mm^3, animals are dosed i.p. with 0.2 ml once daily. Control animals received a saline vehicle whereas treated animals are injected with GFB-111 (50, 100 or 200 mg/kg/day). The tumor volumes are determined by measuring the length (l) and the width (w) and calculating the volume (V=lw^2/2) as described previously. For detection of phosphorylated/activated Erk1/Erk2 in tumors in vivo, the tumors are extracted 20 min after the last GFB-111 injection on day 32, rinsed and the tissue homogenized in HEPES lysis buffer (30 mM Hepes, pH 7.5, 1% T-X-100, 10% glycerol, 10 mM NaCl, 5 mM MgCl2, 25 mM NaF, 1 mM EGTA, 2 mM Na3VO4, 10 μg/ml trypsin inhibitor, 25 μg/ml leupeptin, 10 μg/ml aprotinin, 2 mM PMSF). The lysates (50-100 μg) are electrophoresed on a 15% SDS-PAGE, transferred to nitrocellulose membranes and immunoblotted, with anti-phospho-p44/p42 MAPK (Thy202/Tyr204).

[2] = system: HRGβ-activation of Erk1/Erk2; experiment: HRGβ activation of Erk1/Erk2 in SkBr3 breast carcinoma cells overexpressing ErbB2; assay type: cell-based, human; conditions: concentrations as high as 100 μM
Method: (§1) In other experiments, starved NIH 3T3 cells (PDGF-AA, PDGF-BB, aFGF, bFGF), NIH 3T3 cells overexpressing EGFR. IGF-1R or Flk-1 and the human breast carcinoma SkBr3 that overexpresses ErbB2 (HRGβ) are pretreated with GFB-111 (100 μM) for 5 min before 10 min stimulation with the indicated growth factors at the concentrations shown above and aFGF (10 ng/ml), bFGF (50 ng/ml), IGF-1 (50 ng/ml) and HRGβ (10 ng/ml). Cell lysates are then immunoblotted with anti-phospho Erk1/Erk2 as described above.

[3] = system: angiogenesis in DaOY tumors; experiment: Angiogenesis: microvessel count in DaOY tumors; assay type: in vivo, nude mice
Method: On the indicated termination day of each nude mouse experiment described above, (see also Table 2), the tumors are extracted and half frozen at −70° C., and half is fixed in 10% neutral buffered formalin for 6 hrs. After fixation the tissue samples are processed into paraffin blocks. Four micrometer-thick tissue sections are obtained from the paraffin blocks and stained with hematoxylin and eosin (H&E) (Richard-Allan Scientific, Kalamazoo, Mich.) using standard histologic techniques. Tissue sections are also subjected to immunostaining for Factor VIII using the avidin biotin peroxidase complex technique (Vectastatin Elite ABC Kit, Vector, Burlingame, Calif.). Rabbit polyclonal FVIII antibody (Von Willebrand Factor, Dako Corporation, Carpinteria, Calif.) is used at 1:400 dilution, following microwave antigen retrieval (4 cycles of 5 minutes each on high in 0.1M citrate buffer).

IGF-1 = target: T1, IGF-1 (Homo sapiens, UniProt P05019); experiment: Inhibition of [125I]-IGF-1 binding to NIH 3T3 cells overexpressing IGF-1R; conditions: 10 μM
T1 construct: host or cells: NIH 3T3 cells transfected with the IGF-1R gene carry the receptor
Method: NIH 3T3 (PDGF) or NIH 3T3 cells overexpressing either EGFR (EGF), IGFR (IGF) or Flk-1 (VEGF), are incubated with [^125I]-PDGF, [^125I]-EGF, [^125I]-IGF or [^125I]-VEGF, respectively (50,000 cpm per well) and increasing concentrations of GFB-111 or GFB-116. Cells are incubated at 4° C. for 1-3 h. After discarding media, the cells are washed 3 times with PBS and three times with Tris 25 mM pH 8.0, 1% T-X-100, 10% glycerol, 1% SDS. Lysates plus wash are counted. Excess of cold growth factors is used to obtain non-specific binding levels.
Whether GFB 111 can block [^125I]-PDGF-BB specific binding in NIH 3T3 cells is determined by pre-treatment of the PDGF-BB with increasing concentrations of GFB-111. FIG. 2C illustrates that in the absence of GFB-111, [^125I]-PDGF-BB is bound by NIH3T3 cells. However, pre-treatment with increasing concentrations of GFB-111, results in a concentration-dependent decrease in PDGF-BB binding.

[4] = target: EGF (epidermal growth factor) (Homo sapiens, UniProt P01133); experiment: Binding to EGF by gel electrophoresis
[5] = system: bFGF-activation of Erk1/Erk2; experiment: bFGF activation of Erk1/Erk2 in NIH 3T3 cells; assay type: cell-based; conditions: concentrations as high as 100 μM
Method: as §1

B16-F10 melanoma = B16-F10 melanoma tumor growth in immune-competent mice; assay type: in vivo; conditions: immune-competent mouse model

EGF (epidermal growth factor), sequence (P01133 971-1023 limits assumed, species assumed): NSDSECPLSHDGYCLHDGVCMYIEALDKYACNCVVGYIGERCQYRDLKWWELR
T1 sequence (P05019 49-118 limits assumed, species assumed): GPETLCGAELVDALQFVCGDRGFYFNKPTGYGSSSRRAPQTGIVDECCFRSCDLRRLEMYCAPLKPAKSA

Molecule | % Tumor growth inhibition (rat glioma C6; C6, 50 mpk, day in parentheses in cell) | Inhibition of C6 tumor growth in nude mice (rat glioma C6; mouse, in vivo) | Erk1/Erk2 activation in the tumors [1] | HRGβ-activation of Erk1/Erk2 [2] | Microvessel count (Mean ± SD) 250X ([3]; DaOY tumor, 50 mpk) | Microvessel count (Mean ± SD) 400X ([3]; DaOY tumor, 50 mpk) | Inhibition of angiogenesis ([3]; DaOY tumors) | Effect on [125I]-IGF-1 binding (IGF-1) | Binding to EGF [4] | bFGF-activation of Erk1/Erk2 [5] | Inhibition of growth of B16-F10 melanoma (B16-F10 melanoma)
CCCCOc1c2cc(C(=O)Nc3cc4cc(c3)C(=O)NCC(=O)N[C@@H](CC(=O)O)C(=O)NCC(=O)N[C@@H](Cc3ccc(O)cc3)C(=O)NC4)cc1Cc1cc(C(=O)Nc3cc4cc(c3)C(=O)NCC(=O)N[C@@H](CC(=O)O)C(=O)NCC(=O)N[C@@H](Cc3ccc(O)cc3)C(=O)NC4)cc(c1OCCCC)Cc1cc(C(=O)Nc3cc4cc(c3)C(=O)NCC(=O)N[C@@H](CC(=O)O)C(=O)NCC(=O)N[C@@H](Cc3ccc(O)cc3)C(=O)NC4)cc(c1OCCCC)Cc1cc(C(=O)Nc3cc4cc(c3)C(=O)NCC(=O)N[C@@H](CC(=O)O)C(=O)NCC(=O)N[C@@H](Cc3ccc(O)cc3)C(=O)NC4)cc(c1OCCCC)C2 [GFB-111] | 54% (15) and 64% (15) and 46% (18) | effective | blocked | minimally affected | 7.20 ± 2.52 | 4.80 ± 1.37 | no effect | lack of significant effects | does not bind | minimally affected | 
GKGK [GFB-116] |  |  |  |  |  |  |  |  |  |  | effective
